Experimental data: the NIST ThermoML archive (doi:10.1016/j.jct.2015.07.032)

How the values were obtained:
[1] = relative permittivity at various frequencies (dimensionless); xn = mol fraction of the nth substance listed; settings: 100 kPa, Liquid, Frequency=1 MHz, Parallel plate capacitor
[2] = relative permittivity at various frequencies (dimensionless); settings: 100 kPa, Liquid, Frequency=1 MHz, Parallel plate capacitor

NC1CCCCC1 [cyclohexylamine] + CCCO
relative permittivity, [1]
Settings	293.15 K	298.15 K	303.15 K
x2 = 0	4.62	4.53	4.45
x2 = 0.034	4.88	4.78	4.68
x2 = 0.1154	5.64	5.08	5.37
x2 = 0.213	6.58	6.42	6.26
x2 = 0.3031	7.66	7.46	7.26
x2 = 0.3996	9.02	8.76	8.5
x2 = 0.4469	9.77	9.48	9.19
x2 = 0.4962	10.61	10.29	9.97
x2 = 0.5499	11.61	11.25	10.89
x2 = 0.6056	12.69	12.29	11.9
x2 = 0.6998	14.69	14.24	13.79
x2 = 0.7953	16.94	16.43	15.92
x2 = 0.8464	18.08	17.54	17.01
x2 = 0.8913	19.21	18.71	18.14
x2 = 0.9509	20.44	19.85	19.21
x2 = 0.9798	21.09	20.41	19.77

CCCCO [butan-1-ol]
[2]
Settings	relative permittivity
293.15 K	18.21
298.15 K	17.58
303.15 K	16.95

CCCCCCCO [heptan-1-ol] + NC1CCCCC1
[1], x1 = 1
Settings	relative permittivity
293.15 K	11.97
298.15 K	11.47
303.15 K	10.98

NC1CCCCC1 [cyclohexylamine] + CCCCO
relative permittivity, [1]
Settings	293.15 K	298.15 K	303.15 K
x2 = 0	4.62	4.53	4.45
x2 = 0.0493	4.99	4.9	4.8
x2 = 0.1081	5.46	5.35	5.23
x2 = 0.2107	6.37	6.22	6.07
x2 = 0.3104	7.39	7.2	7.01
x2 = 0.403	8.47	8.22	7.99
x2 = 0.4521	9.08	8.82	8.56
x2 = 0.4995	9.73	9.44	9.15
x2 = 0.5556	10.55	10.21	9.9
x2 = 0.5974	11.18	10.82	10.49
x2 = 0.6987	12.81	12.4	11.98
x2 = 0.7968	14.53	14.04	13.57
x2 = 0.8955	16.31	15.76	15.24
x2 = 0.9472	17.26	16.67	16.11
x2 = 0.9773	17.82	17.2	16.63

CCCO [propan-1-ol] + NC1CCCCC1
[1], x1 = 1
Settings	relative permittivity
293.15 K	21.23
298.15 K	20.54
303.15 K	19.84

NC1CCCCC1 [cyclohexylamine]
[2]
Settings	relative permittivity
293.15 K	4.62
298.15 K	4.53
303.15 K	4.45

CCCCCCCCCCO [decan-1-ol]
[2]
Settings	relative permittivity
293.15 K	8.41
298.15 K	8.01
303.15 K	7.64

CCCCCCCCCCO [decan-1-ol] + NC1CCCCC1
[1], x1 = 1
Settings	relative permittivity
293.15 K	8.41
298.15 K	8.01
303.15 K	7.64

NC1CCCCC1 [cyclohexylamine] + CCCCCCCCCCO
relative permittivity, [1]
Settings	293.15 K	298.15 K	303.15 K
x2 = 0	4.62	4.53	4.45
x2 = 0.0561	4.87	4.78	4.69
x2 = 0.1027	5.05	4.95	4.85
x2 = 0.2012	5.4	5.29	5.19
x2 = 0.2947	5.73	5.6	5.49
x2 = 0.4077	6.09	5.95	5.82
x2 = 0.5107	6.42	6.26	6.11
x2 = 0.5522	6.56	6.38	6.22
x2 = 0.604	6.72	6.53	6.36
x2 = 0.6528	6.88	6.68	6.5
x2 = 0.697	7.02	6.81	6.61
x2 = 0.7474	7.2	6.97	6.76
x2 = 0.7859	7.34	7.09	6.87
x2 = 0.8348	7.54	7.27	7.02
x2 = 0.8915	7.81	7.51	7.22
x2 = 0.942	8.08	7.73	7.41

CCCO [propan-1-ol]
[2]
Settings	relative permittivity
293.15 K	21.23
298.15 K	20.54
303.15 K	19.84

NC1CCCCC1 [cyclohexylamine] + CCCCCCCO
relative permittivity, [1]
Settings	293.15 K	298.15 K	303.15 K
x2 = 0	4.62	4.53	4.45
x2 = 0.0522	4.93	4.83	4.74
x2 = 0.1037	5.22	5.11	5.01
x2 = 0.2039	5.8	5.7	5.61
x2 = 0.2903	6.29	6.15	6.01
x2 = 0.3955	6.93	6.76	6.6
x2 = 0.4467	7.27	7.08	6.91
x2 = 0.5072	7.67	7.45	7.26
x2 = 0.5554	8.01	7.78	7.56
x2 = 0.5918	8.26	8.01	7.78
x2 = 0.6575	8.72	8.45	8.19
x2 = 0.6959	9.01	8.71	8.44
x2 = 0.7433	9.39	9.07	8.77
x2 = 0.7933	9.81	9.46	9.13
x2 = 0.8177	10.03	9.67	9.34
x2 = 0.8881	10.7	10.29	9.9
x2 = 0.9463	11.35	10.89	10.45

CCCCCCCO [heptan-1-ol]
[2]
Settings	relative permittivity
293.15 K	11.97
298.15 K	11.47
303.15 K	10.98

CCCCO [butan-1-ol] + NC1CCCCC1
[1], x1 = 1
Settings	relative permittivity
293.15 K	18.21
298.15 K	17.58
303.15 K	16.95
